Calls of active or inactive are those of the source. The rule behind the calls is not given here.
Tests used:
A2780 [1] = assay: Downregulation of UQCR level in human A2780 cells by Western blot analysis; type: functional, cell-based; conditions: dose <= 500.0 nM
A2780 [2] = assay: Inhibition of MT-CYB expression in human A2780 cells at 100 nM incubated for 12 hrs by RNA sequencing analysis; type: functional, cell-based
[3] = Clearance in ICR mouse at 1 mg/kg, iv measured upto 24 hrs by LC-MS/MS analysis; type: ADME, organism-based; conditions: in vivo
A2780 [4] = assay: Inhibition of colony formation in human A2780 cells at upto 500 nM incubated for 14 days by crystal violet staining based analysis; type: functional, cell-based; conditions: time 14.0 day
A2780 [5] = assay: Induction of cell cycle arrest in human A2780 cells assessed as accumulation of cells at G2 phase at 100 nM measured after 96 hrs by PI staining based flow cytometry analysis (reference value: 4.49%); type: functional
A2780 [6] = assay: Antitumor activity against human A2780 cells xenografted in BALB/c nude mouse model assessed as effect on heart 100 mg/kg, po measured after 27 days; type: functional, organism-based; conditions: time 27.0 day
A2780 [7] = assay: Induction of mitochondrial membrane potential changes in human A2780 cells at upto 500 nM measured after 96 hrs by JC-1 staining based immunofluorescence assay; type: functional, cell-based
A2780 [8] = assay: Antiproliferative activity against human A2780 cells incubated for 168 hrs by SRB method; type: functional, cell-based; conditions: A2780, 168 h
A2780 [9] = assay: Induction of cell cycle arrest in human A2780 cells assessed as accumulation of cells at G1 phase at 200 nM measured after 96 hrs by PI staining based flow cytometry analysis (reference value: 80.81%); type: functional
[10] = Inhibition of ND1 transcript level in human A2780 cells at 500 nM measured after 12 hrs by RT-qPCR analysis relative to control; type: functional
A2780 [11] = assay: Inhibition of mitochondrial transcript in human A2780 cells assessed as decrease in CYTB expression by RT-qPCR analysis; type: functional, cell-based
A2780 [12] = assay: Induction of cell cycle arrest in human A2780 cells assessed as accumulation of cells at G2 phase at 50 nM measured after 96 hrs by PI staining based flow cytometry analysis (reference value: 4.49%); type: functional
A2780 [13] = assay: Effect on 5S mRNA level in human A2780 cells by RT-qPCR analysis; type: functional, cell-based
A2780 [14] = assay: Antitumor activity against human A2780 cells xenografted in BALB/c nude mouse model assessed as reduction in COX1 level at 100 mg/kg, po by immunoblotting analysis; type: functional, organism-based
A2780 [15] = assay: Downregulation of NDUFB8 level in human A2780 cells by Western blot analysis; type: functional, cell-based; conditions: dose <= 500.0 nM
A2780 [16] = assay: Induction of cell cycle arrest in human A2780 cells assessed as accumulation of cells at S phase at 100 nM measured after 96 hrs by PI staining based flow cytometry analysis (reference value: 14.7%); type: functional
A2780 [17] = assay: Inhibition of mitochondrial transcript in human A2780 cells incubated for 12 hrs followed by compound removal and measured after 36 hrs by RT-qPCR analysis; type: functional, cell-based
[18] = Apparent permeability across basolateral side to apical side in human Caco-2 cells at 3 uM incubated for 2 hrs by LC-MS/MS analysis; type: ADME, cell-based
A2780 [19] = assay: Inhibition of MT-ATP8 expression in human A2780 cells at 100 nM incubated for 12 hrs by RNA sequencing analysis; type: functional, cell-based
[20] = Oral bioavailability in ICR mouse at 10 mg/kg measured upto 24 hrs by LC-MS/MS analysis; type: ADME, organism-based; conditions: in vivo
[21] = MRT in ICR mouse at 10 mg/kg, po measured upto 24 hrs by LC-MS/MS analysis; type: ADME, organism-based; conditions: in vivo
A2780 [22] = assay: Antitumor activity against human A2780 cells xenografted in BALB/c nude mouse model assessed as effect on liver 100 mg/kg, po measured after 27 days; type: functional, organism-based; conditions: time 27.0 day
Cytochrome P450 3A4 = Cytochrome P450 3A4 (Homo sapiens, UniProt P08684); assay: Inhibition of […] (unknown origin) using testosterone as substrate in presence of NADPH by LC/MS/MS analysis; type: ADME
A2780 [23] = assay: Induction of apoptosis in human A2780 cells assessed as late apoptotic cells at 100 nM incubated for 96 hrs by Annexin-V/FITC and PI staining based flow cytometry analysis (reference value: 3.79%); type: functional
A2780 [24] = assay: Induction of intracellular ROS generation in human A2780 cells at upto 500 nM measured after 96 hrs by DCFH-DA staining based immunofluorescence assay; type: functional, cell-based
A2780 [25] = assay: Inhibition of MT-ND3 expression in human A2780 cells at 100 nM incubated for 12 hrs by RNA sequencing analysis; type: functional, cell-based
A2780 [26] = assay: Antitumor activity against human A2780 cells xenografted in BALB/c nude mouse model assessed as reduction in NDUFB level at 100 mg/kg, po by immunoblotting analysis; type: functional, organism-based
A2780 [27] = assay: Effect on POLRMT mRNA level in human A2780 cells by RT-qPCR analysis; type: functional, cell-based
A2780 [28] = assay: Induction of apoptosis in human A2780 cells assessed as early apoptotic cells at 50 nM incubated for 96 hrs by Annexin-V/FITC and PI staining based flow cytometry analysis (reference value: 14.14%); type: functional
A2780 [29] = assay: Antitumor activity against human A2780 cells xenografted in BALB/c nude mouse model assessed as reduction in ATP5A level at 100 mg/kg, po by immunoblotting analysis; type: functional, organism-based
A2780 [30] = assay: Induction of mitochondrial morphological changes in human A2780 cells assessed as change in shape of mitochondria measured after 24 hrs by TEM analysis; type: functional, cell-based
A2780 [31] = assay: Induction of intracellular ROS generation in human A2780 cells at 0 to 5 uM by DCFH-DA staining based microscopic analysis; type: functional, cell-based; conditions: dose 0-5 µM
A2780 [32] = assay: Induction of autophagy in human A2780 cells assessed as change in MDC labeled fluorescence at upto 500 nM measured after 96 hrs by microscopic analysis; type: functional, cell-based
A2780 [33] = assay: Effect on ATP5A level in human A2780 cells at upto 500 nM by Western blot analysis; type: functional, cell-based
[34] = Toxicity in Balb/c mouse assessed as effect on kidney at 100 mg/kg by H and E staining based analysis; type: organism-based; conditions: in vivo
A2780 [35] = assay: Induction of apoptosis in human A2780 cells assessed as viable cells at 200 nM incubated for 96 hrs by Annexin-V/FITC and PI staining based flow cytometry analysis (reference value: 89.2%); type: functional; conditions: read-out: Activity
[36] = Volume of distribution at steady state in ICR mouse at 1 mg/kg, iv measured upto 24 hrs by LC-MS/MS analysis; type: ADME, organism-based; conditions: in vivo, read-out: Vdss
A2780 [37] = assay: Inhibition of mitochondrial transcript in human A2780 cells by RT-qPCR analysis; type: functional, cell-based; conditions: dose 0.01-1 µM
A2780 [38] = assay: Effect on 18S mRNA level in human A2780 cells by RT-qPCR analysis; type: functional, cell-based
HeLa = assay: Antiproliferative activity against human HeLa cells incubated for 168 hrs by SRB method; type: functional, cell-based
[39] = Toxicity in Balb/c mouse assessed as effect on spleen at 100 mg/kg by H and E staining based analysis; type: organism-based; conditions: in vivo
A2780 [40] = assay: Downregulation of COX1 level in human A2780 cells by Western blot analysis; type: functional, cell-based; conditions: dose <= 500.0 nM

Cytochrome P450 3A4, sequence (P08684 whole entry): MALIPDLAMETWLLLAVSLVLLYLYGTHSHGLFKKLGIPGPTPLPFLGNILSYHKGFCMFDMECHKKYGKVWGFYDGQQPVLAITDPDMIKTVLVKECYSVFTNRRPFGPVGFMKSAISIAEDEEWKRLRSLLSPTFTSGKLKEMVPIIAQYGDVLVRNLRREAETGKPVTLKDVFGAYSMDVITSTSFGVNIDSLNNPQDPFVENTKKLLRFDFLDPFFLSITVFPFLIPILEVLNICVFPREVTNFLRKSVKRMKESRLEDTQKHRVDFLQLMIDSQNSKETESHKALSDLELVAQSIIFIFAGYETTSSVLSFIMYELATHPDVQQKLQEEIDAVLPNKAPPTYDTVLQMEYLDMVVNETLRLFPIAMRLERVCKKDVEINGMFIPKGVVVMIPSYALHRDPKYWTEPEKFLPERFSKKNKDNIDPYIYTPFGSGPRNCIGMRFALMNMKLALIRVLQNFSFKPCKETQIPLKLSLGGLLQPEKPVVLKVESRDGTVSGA

With `Cc1ccc(-c2cc(=O)oc3cc(O[C@H](C)C(=O)N4CC5CCC(C4)N5C)ccc23)c(C)c1` the Activity (A2780 [1]) was “Dose-Dependent Effect”, the inhibition (A2780 [2]) was “Active” and the clearance [3] was 2.29 L/h/kg. For the same molecule, the inhibition (A2780 [4]) was “Active”, the Activity (A2780 [5]) was 3.73% and the Activity (A2780 [6]) was “inactive”. For the same molecule, the Activity (A2780 [7]) was “inactive”, the IC50 (A2780 [8]) was 0.068 µM and the Activity (A2780 [9]) was 87.77%. For the same molecule, the inhibition at 0.5 µM [10] was 15%, the inhibition (A2780 [11]) was “Active” and the Activity (A2780 [12]) was 3.7%. The Activity (A2780 [13]) was “inactive”, the Activity (A2780 [14]) was “Active” and the Activity (A2780 [15]) was “Dose-Dependent Effect”. The Activity (A2780 [16]) was 9.15%, the inhibition (A2780 [17]) was “inactive” and the Papp B→A at 2 h, 3 µM [18] was 83 nm/s. For the same molecule, the inhibition (A2780 [19]) was “Active”, the bioavailability [20] was 43.2% and the MRT [21] was 3.3 h. For the same molecule, the Activity (A2780 [22]) was “inactive”, the IC50 (Cytochrome P450 3A4) was 30.8 µM and the Activity (A2780 [23]) was 5.11%. For the same molecule, the Activity (A2780 [24]) was “inactive”, the inhibition (A2780 [25]) was “Active” and the Activity (A2780 [26]) was “Active”. For the same molecule, the Activity (A2780 [27]) was “inactive”, the Activity (A2780 [28]) was 2.22% and the Activity (A2780 [29]) was “Active”. The Activity (A2780 [30]) was “inactive”, the Activity (A2780 [31]) was “inactive” and the Activity (A2780 [32]) was “inactive”. The Activity (A2780 [33]) was “inactive”, the Activity [34] was “Non-Toxic” and the viability at 0.2 µM (A2780 [35]) was 90.7%. For the same molecule, the Vd [36] was 6.4 L/kg, the inhibition (A2780 [37]) was “Dose-Dependent Effect” and the Activity (A2780 [38]) was “inactive”. The IC50 (HeLa) was 0.832 µM, the Activity [39] was “Non-Toxic” and the Activity (A2780 [40]) was “Dose-Dependent Effect”.
